Tests used:
Test in all cases: relative viability (nuclei count vs DMSO), 5 days (fraction); higher = more cells survive
XMD13-2 + AZD7762 = compound: C1CC1C(=O)NC2=NNC3=C2C=CC(=C3)C4=CC(=CC=C4)C(=O)NC5CC5 [XMD13-2] + NC(=O)Nc1cc(-c2cccc(F)c2)sc1C(=O)N[C@H]1CCCNC1 [AZD7762] (partner 0.2 µM)
How it was run: (§1)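 Medians of duplicate plates are given as relative viability. That measure is the nuclei count in treated wells divided by the count in vehicle wells. Counts were taken on 4× images of lung cancer cell lines in 1536-well plates, 5 days after pin-tool dosing the day after seeding with one drug alone or a fixed anchor-drug dose plus five library-drug doses (not always all listed) in √10 steps.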

ALW-II-49-7 + Pictilisib = compound: Cc1ccc(C(=O)Nc2cccc(C(F)(F)F)c2)cc1Nc1cncc(C(N)=O)c1 [ALW-II-49-7] + CS(=O)(=O)N1CCN(Cc2cc3nc(-c4cccc5[nH]ncc45)nc(N4CCOCC4)c3s2)CC1 [Pictilisib] (partner 1 µM)
How it was run: as §1

ALW-II-49-7 + Linsitinib = compound: Cc1ccc(C(=O)Nc2cccc(C(F)(F)F)c2)cc1Nc1cncc(C(N)=O)c1 [ALW-II-49-7] + C[C@]1(O)C[C@@H](c2nc(-c3ccc4ccc(-c5ccccc5)nc4c3)c3c(N)nccn32)C1 [Linsitinib] (partner 1 µM)
How it was run: as §1

Dasatinib + Pemetrexed = compound: Cc1nc(Nc2ncc(C(=O)Nc3c(C)cccc3Cl)s2)cc(N2CCN(CCO)CC2)n1 [Dasatinib] + Nc1nc2[nH]cc(CCc3ccc(C(=O)N[C@@H](CCC(=O)O)C(=O)O)cc3)c2c(=O)[nH]1 [Pemetrexed] (partner 0.2 µM)
How it was run: as §1

| Cell Line | relative viability (XMD13-2 + AZD7762; first compound 0.05 µM) | relative viability (XMD13-2 + AZD7762; first compound 0.1581 µM) | relative viability (XMD13-2 + AZD7762; first compound 0.5 µM) | relative viability (XMD13-2 + AZD7762; first compound 1.581 µM) | relative viability (XMD13-2 + AZD7762; first compound 5 µM) | relative viability (ALW-II-49-7 + Pictilisib; first compound 0.08 µM) | relative viability (ALW-II-49-7 + Pictilisib; first compound 0.253 µM) | relative viability (ALW-II-49-7 + Pictilisib; first compound 0.8 µM) | relative viability (ALW-II-49-7 + Pictilisib; first compound 2.53 µM) | relative viability (ALW-II-49-7 + Pictilisib; first compound 8 µM) | relative viability (ALW-II-49-7 + Linsitinib; first compound 0.08 µM) | relative viability (ALW-II-49-7 + Linsitinib; first compound 0.253 µM) | relative viability (ALW-II-49-7 + Linsitinib; first compound 0.8 µM) | relative viability (ALW-II-49-7 + Linsitinib; first compound 2.53 µM) | relative viability (ALW-II-49-7 + Linsitinib; first compound 8 µM) | relative viability (Dasatinib + Pemetrexed; first compound 0.005 µM) | relative viability (Dasatinib + Pemetrexed; first compound 0.01581 µM) | relative viability (Dasatinib + Pemetrexed; first compound 0.05 µM) | relative viability (Dasatinib + Pemetrexed; first compound 0.1581 µM) | relative viability (Dasatinib + Pemetrexed; first compound 0.5 µM) |
| --- | --- | --- | --- | --- | --- | --- | --- | --- | --- | --- | --- | --- | --- | --- | --- | --- | --- | --- | --- | --- |
| LC-2-ad | 0.996 | 0.94 | 0.896 | 0.928 | 0.826 | 0.427 | 1.04 | 0.31 | 0.542 | 0.555 | 0.834 | 0.86 | 0.764 | 0.86 | 0.836 | 0.262 | 0.253 | 0.256 | 0.237 | 0.214 |
| NCI-H596 | 1.14 | 0.945 | 1.09 | 1.18 | 1.2 | 0.423 | 0.418 | 0.416 | 0.369 | 0.397 | 1.1 | 1.08 | 1.11 | 1.06 | 1.1 | 0.486 | 0.47 | 0.439 | 0.415 | 0.359 |
| NCI-H1437 | 1.24 | 1.14 | 1.18 | 1.09 | 1.17 | 0.435 | 0.414 |  | 0.432 | 0.399 | 0.935 | 1.04 |  | 0.942 | 0.754 | 0.351 | 0.336 | 0.287 | 0.256 | 0.203 |
| NCI-H727 | 0.807 | 0.665 | 0.583 | 0.505 | 0.776 | 0.511 | 0.415 | 0.267 | 0.432 | 0.292 | 0.303 | 0.331 | 0.316 | 0.283 | 0.37 |  |  |  |  |  |
| PC-3 [JPC-3] | 0.818 | 0.868 | 0.9 |  | 0.718 | 0.657 | 0.799 | 0.745 | 0.711 | 0.616 | 1.01 | 0.914 | 0.935 | 0.995 | 0.952 | 1.22 | 1.1 | 1.08 | 0.717 | 0.474 |
| SW 1573 |  |  |  |  |  | 0.475 | 0.486 | 0.465 | 0.47 | 0.465 | 0.867 | 0.906 | 0.903 | 0.795 | 0.768 | 0.889 |  | 0.742 | 0.607 | 0.548 |
| NCI-H2228 |  |  |  |  |  | 0.477 | 0.464 | 0.428 | 0.34 | 0.254 | 1.17 | 0.677 | 0.8 | 0.644 | 0.611 | 0.323 | 0.325 | 0.319 | 0.259 | 0.128 |
| NCI-H1650 |  |  |  |  |  | 0.583 | 0.5 | 0.581 | 0.618 | 0.6 |  |  |  |  |  | 0.341 | 0.38 | 0.287 | 0.285 | 0.268 |
| COR-L 105 |  |  |  |  |  | 0.543 | 0.419 | 0.387 | 0.344 | 0.422 | 0.884 | 0.848 | 0.824 | 0.745 | 0.752 | 0.869 | 1.1 | 0.783 | 0.605 | 0.361 |
| Calu-6 |  |  |  |  |  | 1.02 | 0.99 | 0.907 | 0.735 | 0.72 | 0.987 | 0.847 | 0.903 | 0.881 | 0.852 |  |  |  |  |  |
| NCI-H2009 |  |  |  |  |  | 0.836 | 0.828 | 0.783 | 0.575 | 0.438 | 1.21 | 1.12 | 1.09 | 1.02 | 1 | 1.17 | 1.09 | 1.31 | 0.946 | 0.243 |
| NCI-H1299 |  |  |  |  |  | 0.623 | 0.78 | 0.609 | 0.436 | 0.311 | 1.02 | 1.05 | 0.696 | 0.721 | 0.423 |  |  |  |  |  |
| ChaGo-K-1 | 0.956 | 0.97 | 0.892 | 0.924 | 0.881 | 0.661 | 1.04 | 0.818 | 1.19 | 0.442 |  |  |  |  |  | 0.256 | 0.255 | 0.254 | 0.244 | 0.235 |
| NCI-H1703 | 0.124 | 0.131 | 0.125 |  | 0.116 | 0.239 | 0.241 | 0.212 | 0.203 | 0.205 | 0.564 | 0.78 | 0.567 | 0.277 | 0.224 |  |  |  |  |  |
| NCI-H522 | 1.08 | 0.728 | 0.7 | 0.737 | 0.692 |  |  |  |  |  |  |  |  |  |  | 1.04 | 1.03 | 0.914 | 0.706 | 0.681 |
| ABC-1 |  | 0.897 | 0.531 |  | 0.745 | 0.879 | 0.761 | 0.811 | 0.79 | 0.689 | 0.87 | 0.85 | 0.676 | 0.885 | 0.765 |  |  |  |  |  |
| IA-LM |  |  |  |  |  | 0.334 | 0.281 | 0.388 | 0.209 | 0.288 | 0.627 | 0.342 | 0.378 | 0.449 | 0.135 |  |  |  |  |  |
| COR-L23 |  |  |  |  |  | 0.839 | 0.548 | 0.739 | 0.72 | 0.779 | 0.947 | 0.829 | 0.769 | 0.953 | 0.957 | 0.211 | 0.196 | 0.19 | 0.19 | 0.18 |
| SW 900 | 0.741 | 0.587 | 0.679 | 0.467 | 0.835 |  |  |  |  |  |  |  |  |  |  | 0.47 | 0.348 | 0.43 | 0.186 | 0.203 |
| SK-LU-1 |  |  |  |  |  | 0.522 | 0.715 | 0.44 |  | 0.514 | 1.03 | 1.22 | 1.19 | 0.953 | 0.793 | 0.864 | 0.617 | 0.467 | 0.306 | 0.282 |
| NCI-H1563 |  |  |  |  |  | 0.573 | 0.661 | 0.643 | 0.595 | 0.657 | 1.18 | 1.18 | 1.31 | 1.34 | 1.22 | 0.684 | 0.625 | 0.487 | 0.458 | 0.4 |
| NCI-H520 |  |  |  |  |  | 0.234 | 0.302 |  | 0.264 | 0.259 | 0.779 | 1.04 |  | 1.16 | 0.951 | 0.51 | 0.358 | 0.285 | 0.138 | 0.138 |
| NCI-H2342 | 0.494 | 0.566 | 0.516 | 0.455 | 0.598 |  |  |  |  |  |  |  |  |  |  | 0.742 | 0.705 | 0.676 | 0.514 | 0.285 |

— the supplement of paper PMC10307832
